BindingDB's records for doi:10.1021/acs.jmedchem.9b00068 (University of Michigan, 2019)

Key:
[1] = target: T1, Eukaryotic translation initiation factor 4E (Homo sapiens, UniProt P06730); test: Binding affinity to N-terminal 10His-tagged m7GDP-bound recombinant human eIF4E expressed in Escherichia coli BL21 (DE3) cells assessed as dissociation constant at 25 degreeC by surface plasmon resonance analysis
[2] = target: T1, Eukaryotic translation initiation factor 4E; test: Binding affinity to N-terminal 10His-tagged m7GDP-bound recombinant human eIF4E expressed in Escherichia coli BL21 (DE3) cells assessed as dissociation constant at 25 degreeC in presence 225 to 1000 mM of NaCl by surface plasmon resonance analysis

T1 sequence (P06730 whole entry): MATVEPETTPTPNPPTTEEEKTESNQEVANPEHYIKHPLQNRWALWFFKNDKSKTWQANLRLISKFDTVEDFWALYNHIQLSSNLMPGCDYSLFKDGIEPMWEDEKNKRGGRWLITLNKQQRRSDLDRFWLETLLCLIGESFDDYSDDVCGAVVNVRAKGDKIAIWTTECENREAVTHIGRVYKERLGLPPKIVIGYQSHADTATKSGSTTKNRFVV

Compound | Kd [1] | Kd [2]
Ac-KKRYSREQLLGL-NH2 | 123 nM | –
CC(=O)N[C@@H](CCCCN)C(=O)N[C@@H](CCCCN)C(=O)N[C@@H](CCCNC(=N)N)C(=O)N[C@@H](Cc1ccc(O)cc1)C(=O)N[C@@H](CC(=O)O)C(=O)N[C@@H](CCCNC(=N)N)C(=O)N[C@@H](CCC(=O)O)C(=O)N[C@@H](Cc1ccccc1)C(=O)N[C@@H](CC(C)C)C(=O)N[C@@H](CC(C)C)C(=O)NCC(=O)N[C@@H](Cc1ccccc1)C(=O)N[C@@H](CCC(N)=O)C(=O)N[C@@H](Cc1ccccc1)C(N)=O | – | 0.046 nM
